Patent US20240156861A1, “Cisplatin particles and uses thereof” (CRITITECH, INC., priority 2022, published 2024)
Values joined by “and” are separate entries in the source; they are usually repeats but may differ in a detail not shown here. Equal entries are not always repeated.

How the values were obtained:
Assay type in all cases: in vivo, female athymic nude mice
[1] = Blood platinum concentrations and PK parameters by ICP-MS in H69 xenograft mice
Procedure: (§1) A total of 130 female athymic nude mice bearing the H69 human lung carcinoma xenograft were assigned to 10 treatment groups. Group 1 (N=5 females) served as the no treatment control. All intratumoral (IT) injections were delivered as single 25 μL injections. […] The maximum concentration of cisplatin solution and LSAM-Cisplatin suspension is 1 mg/mL and 10 mg/mL, respectively. The IT maximum feasible dose (MFD) for cisplatin solution is 25 μg and 250 μg for LSAM-Cisplatin suspension. Group 2 (N=10 females) was administered 47.5% ethanol/47.5% glycerin/5% water IT on Study Days 1 and 16 and served as control. Group 3 (N=20 females) received 133 μg cisplatin intraperitoneal (IP), considered the standard of care (SOC), once weekly for 3 cycles (Days 1, 8, and 15. Group 4 (N=5) was administered a single 125 μg large surface area microparticle (LSAM)-Cisplatin IT injection on Day 1. Group 5 (N=5 females) received a single 187.5 μg LSAM-Cisplatin IT injection on Day 1. Group 6 (N=5 females) was administered a single 250 μg LSAM-Cisplatin IT injection on Day 1. Group 7 (N=20 females) received single 25 μg cisplatin IT injections on Days 1 and 16. Group 8 (N=20 females) received single 125 μg LSAM-Cisplatin IT injections on Days 1 and 16. Group 9 (N=20 females) received single 187.5 μg LSAM-Cisplatin IT injections on Days 1 and 16. Group 10 (N=20 females) received single 250 μg LSAM-Cisplatin IT injections on Days 1 and 16. One hour postdose on Day 1, blood and tumor tissue were collected for determination of platinum concentrations from 3 Group 2 females and 5 females from Groups 3 and 7-10. On Days 8, 16 (predose) and 28, blood and tumor tissue were collected for determination of platinum concentrations from 5 females/Study Day from Groups 3 and 7-10. Total platinum concentrations in blood and tumor tissues were determined by inductively coupled plasma mass spectrometry (ICP-MS).
(§2) The LSAM-Cisplatin pharmacology study was conducted to: • Quantitate platinum content in whole blood and tumors to animals administered cisplatin IP (standard of care, SOC), the MFD of IT cisplatin, and IT LSAM- Cisplatin at the maximum feasible dose (MFD) and two lower doses • Evaluate tumor response • Evaluate increased doses of IT LSAM-Cisplatin up to 2X systemic maximum tolerated dose (MTD) • Evaluate one vs two injections • Evaluate recurrences if tumors regressed
(§3) Blood and tumor-site tissue were collected from each treatment group according to Table 4.
(§4) All blood and tumor-site tissue platinum concentrations that were reported as BLQ were considered as zero for statistical purposes. Mean and standard deviation are the only statistics reported for blood and tumor-site tissue platinum concentrations and platinum blood to tumor tissue ratios. Composite maximum observed concentration (Cmax), time of Cmax (Tmax), and area under the concentration-time curve (AUC) values for platinum in blood and tumor tissue following single and repeated administration of cisplatin or LSAM-Cisplatin are reported.

[2] = Platinum blood to tumor-site tissue concentration ratios in H69 xenograft mice; settings: for Individual platinum blood to tumor-site tissue concentration ratio: individual animals
Procedure: as §1, §4
Platinum Cmax, Tmax, and AUC values for single-dose blood and tumor-site tissue data are provided in Table 8 and Table 9, respectively. Platinum Cmax, Tmax, and AUC values for multi-dose blood and tumor-site tissue data are provided in Table 10 and Table 11, respectively. Mean single-dose blood platinum concentrations are plotted in FIG. 20. Mean single-dose tumor-site tissue platinum concentrations are plotted in FIG. 21. Mean multiple-dose blood platinum concentration data are plotted in FIG. 22. Mean multiple-dose tumor-site tissue platinum concentration data are plotted in FIG. 23.

[3] = system: H69 human lung carcinoma xenograft; test: Tumor-site tissue platinum concentrations and PK parameters by ICP-MS in H69 xenograft mice;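 on Individual Tumor-Site Tissue Platinum Concentrations: unit μg/g tissue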;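 on Mean Tumor-Site Tissue Platinum Concentrations: unit μg/g tissue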
Procedure: as §1, §2, §3, §4

[4] = Group 3: 6 mg/kg IP on Days 1, 8, 15, Day 1 (1 hour postdose)
[5] = Group 3: 6 mg/kg IP on Days 1, 8, 15, Day 1 (1 hour postdose), 6 mg/kg
[6] = Group 3: 6 mg/kg IP on Days 1, 8, 15, Day 8 (pre-dose)
[7] = Group 3: 6 mg/kg IP on Days 1, 8, 15, Day 16
[8] = Group 3: 6 mg/kg IP on Days 1, 8, 15, Day 16, 6 mg/kg
[9] = Group 3: 6 mg/kg IP on Days 1, 8, 15, Day 28
[10] = Group 3: 6 mg/kg IP on Days 1, 8, 15, Day 28, 6 mg/kg
[11] = multiple doses, 6 mg/kg IP on Days 1, 8, and 15
[12] = multiple doses, ~1.1 mg/kg IT on Days 1 and 16
[13] = single dose Day 1, ~1.1 mg/kg IT

N.N.[Cl][Pt][Cl] [Cisplatin]
Day 28 blood platinum concentrations, IP versus IT ([1]; 6 mg/kg IP (SOC) versus ~1.1 mg/kg IT Days 1 and 16): higher
Mean Blood Platinum Concentrations [1, 4]: 793 ng/mL
Individual Blood Platinum Concentrations [1, 5]: 977 ng/mL and 221 ng/mL and 891 ng/mL and 1040 ng/mL and 838 ng/mL
Mean Blood Platinum Concentrations [1, 6]: 368 ng/mL
Individual Blood Platinum Concentrations ([1]; Group 3: 6 mg/kg IP on Days 1, 8, 15, Day 8 (pre-dose), 6 mg/kg): 441 ng/mL and 304 ng/mL and 428 ng/mL and 241 ng/mL and 426 ng/mL
Mean Blood Platinum Concentrations [1, 7]: 1180 ng/mL
Individual Blood Platinum Concentrations [1, 8]: 884 ng/mL and 1310 ng/mL and 1270 ng/mL and 1110 ng/mL and 1330 ng/mL
Mean Blood Platinum Concentrations [1, 9]: 396 ng/mL
Individual Blood Platinum Concentrations [1, 10]: 493 ng/mL and 472 ng/mL and 363 ng/mL and 188 ng/mL and 465 ng/mL
Mean Blood Platinum Concentrations ([1]; Group 7: ~1.1 mg/kg IT on Days 1 and 16, Day 1 (1 hour postdose)): 189 ng/mL
Individual Blood Platinum Concentrations ([1]; Group 7: ~1.1 mg/kg IT on Days 1 and 16, Day 1 (1 hour postdose), 1.1 mg/kg): 160 ng/mL and 242 ng/mL and 181 ng/mL and 193 ng/mL and 171 ng/mL
Mean Blood Platinum Concentrations ([1]; Group 7: ~1.1 mg/kg IT on Days 1 and 16, Day 8): 57.6 ng/mL
Individual Blood Platinum Concentrations ([1]; Group 7: ~1.1 mg/kg IT on Days 1 and 16, Day 8, 1.1 mg/kg): 69.9 ng/mL and BLQ (below the limit of quantitation (<50 ng/mL) and treated as zero for statistical purposes) and 86.7 ng/mL and 79 ng/mL and 52.6 ng/mL
Mean Blood Platinum Concentrations ([1]; Group 7: ~1.1 mg/kg IT on Days 1 and 16, Day 16 (predose)): 11.4 ng/mL
Individual Blood Platinum Concentrations ([1]; Group 7: ~1.1 mg/kg IT on Days 1 and 16, Day 16 (predose), 1.1 mg/kg): BLQ (below the limit of quantitation (<50 ng/mL) and treated as zero for statistical purposes) (4×) and 56.8 ng/mL
Mean Blood Platinum Concentrations ([1]; Group 7: ~1.1 mg/kg IT on Days 1 and 16, Day 28): 61.1 ng/mL
Individual Blood Platinum Concentrations ([1]; Group 7: ~1.1 mg/kg IT on Days 1 and 16, Day 28, 1.1 mg/kg): 68.1 ng/mL and 68.3 ng/mL and 57.8 ng/mL and 57.4 ng/mL and 53.8 ng/mL
Blood Platinum AUC0-t [1, 11]: 486,824 ng · hr/mL
Blood Platinum Cmax [1, 11]: 1180 ng/mL
Blood Platinum Tmax [1, 11]: 384 h
Blood Platinum AUC0-t [1, 12]: 40,709 ng · hr/mL
Blood Platinum Cmax [1, 12]: 189 ng/mL
Blood Platinum Tmax [1, 12]: 1 h
Blood Platinum AUC0-192 ([1]; single dose Day 1, 6 mg/kg IP): 111,272 ng · hr/mL
Blood Platinum Cmax ([1]; single dose Day 1, 6 mg/kg IP): 793 ng/mL
Blood Platinum Tmax ([1]; single dose Day 1, 6 mg/kg IP): 1 h
Blood Platinum AUC0-192 [1, 13]: 23,645 ng · hr/mL
Blood Platinum AUC0-384 [1, 13]: 30,269 ng · hr/mL
Blood Platinum Cmax [1, 13]: 189 ng/mL
Blood Platinum Tmax [1, 13]: 1 h
Individual platinum blood to tumor-site tissue concentration ratio ([2]; Group 3, 6 mg/kg cisplatin IP on Days 1, 8, and 15, sampling Day 1): 1.084 and 0.775 and 0.134 and 0.994
Mean platinum blood to tumor-site tissue concentration ratio ([2]; Group 3, 6 mg/kg cisplatin IP on Days 1, 8, and 15, sampling Day 1, N=4): 0.747
Individual platinum blood to tumor-site tissue concentration ratio ([2]; Group 3, 6 mg/kg cisplatin IP on Days 1, 8, and 15, sampling Day 16): 1.174 and 1.120 and 1.000 and 0.424 and 1.188
Mean platinum blood to tumor-site tissue concentration ratio ([2]; Group 3, 6 mg/kg cisplatin IP on Days 1, 8, and 15, sampling Day 16, N=5): 0.981
Individual platinum blood to tumor-site tissue concentration ratio ([2]; Group 3, 6 mg/kg cisplatin IP on Days 1, 8, and 15, sampling Day 28): 0.506 and 0.267
Mean platinum blood to tumor-site tissue concentration ratio ([2]; Group 3, 6 mg/kg cisplatin IP on Days 1, 8, and 15, sampling Day 28, N=2): 0.386
Individual platinum blood to tumor-site tissue concentration ratio ([2]; Group 7, ~1.1 mg/kg cisplatin IT on Days 1 and 16, sampling Day 1, 1.1 mg/kg): 0.011 and 0.018 and 0.019 and 0.022 and 0.016
Mean platinum blood to tumor-site tissue concentration ratio ([2]; Group 7, ~1.1 mg/kg cisplatin IT on Days 1 and 16, sampling Day 1, N=5): 0.017
Individual platinum blood to tumor-site tissue concentration ratio ([2]; Group 7, ~1.1 mg/kg cisplatin IT on Days 1 and 16, sampling Day 8, 1.1 mg/kg): 0.023 and 0.000 and 0.020 and 0.026 and 0.053
Mean platinum blood to tumor-site tissue concentration ratio ([2]; Group 7, ~1.1 mg/kg cisplatin IT on Days 1 and 16, sampling Day 8, N=5): 0.024
Individual platinum blood to tumor-site tissue concentration ratio ([2]; Group 7, ~1.1 mg/kg cisplatin IT on Days 1 and 16, sampling Day 16, 1.1 mg/kg): 0.000 (3×) and 0.023
Mean platinum blood to tumor-site tissue concentration ratio ([2]; Group 7, ~1.1 mg/kg cisplatin IT on Days 1 and 16, sampling Day 16, N=4): 0.006
Individual platinum blood to tumor-site tissue concentration ratio ([2]; Group 7, ~1.1 mg/kg cisplatin IT on Days 1 and 16, sampling Day 28, 1.1 mg/kg): 0.003 and 0.008 and 0.009 and 0.007 and 0.025
Mean platinum blood to tumor-site tissue concentration ratio ([2]; Group 7, ~1.1 mg/kg cisplatin IT on Days 1 and 16, sampling Day 28, N=5): 0.010
systemic exposure to platinum based on mean blood to tumor-site tissue ratios ([2]; repeated IT administration of 1.1 mg/kg): negligible
Mean Tumor-Site Tissue Platinum Concentrations [3, 4]: 0.734 µg/g
Individual Tumor-Site Tissue Platinum Concentrations [3, 5]: 0.901 μg/g and BLQ (below the limit of quantitation (<0.650 μg/g) and treated as zero for statistical purposes) and 1.15 μg/g and 0.777 μg/g and 0.843 μg/g
Individual Tumor-Site Tissue Platinum Concentrations [3, 6]: BLQ (below the limit of quantitation (<0.650 μg/g) and treated as zero for statistical purposes)
Mean Tumor-Site Tissue Platinum Concentrations ([3]; Group 3: 6 mg/kg IP on Days 1, 8, 15, Day 8 (pre-dose), BLQ treated as zero): 0.00 µg/g
Mean Tumor-Site Tissue Platinum Concentrations [3, 7]: 1.39 µg/g
Individual Tumor-Site Tissue Platinum Concentrations [3, 8]: 0.753 µg/g and 1.17 µg/g and 1.27 µg/g and 2.62 µg/g and 1.12 µg/g
Mean Tumor-Site Tissue Platinum Concentrations [3, 9]: 0.459 µg/g
Individual Tumor-Site Tissue Platinum Concentrations [3, 10]: BLQ (below the limit of quantitation (<0.650 μg/g) and treated as zero for statistical purposes) (3×) and 0.933 μg/g and 1.36 μg/g
Mean Tumor-Site Tissue Platinum Concentrations ([3]; Group 7: 1.1 mg/kg IT on Days 1 and 16, Day 1 (1 hour postdose)): 11.3 µg/g
Individual Tumor-Site Tissue Platinum Concentrations ([3]; Group 7: 1.1 mg/kg IT on Days 1 and 16, Day 1 (1 hour postdose), 1.1 mg/kg): 14.4 µg/g and 13.2 µg/g and 9.66 µg/g and 8.68 µg/g and 10.4 µg/g
Mean Tumor-Site Tissue Platinum Concentrations ([3]; Group 7: 1.1 mg/kg IT on Days 1 and 16, Day 8): 3.23 µg/g
Individual Tumor-Site Tissue Platinum Concentrations ([3]; Group 7: 1.1 mg/kg IT on Days 1 and 16, Day 8, 1.1 mg/kg): 3.06 µg/g and 4.74 µg/g and 4.29 µg/g and 3.02 µg/g and 1.06 µg/g
Mean Tumor-Site Tissue Platinum Concentrations ([3]; Group 7: 1.1 mg/kg IT on Days 1 and 16, Day 16 (predose)): 2.97 µg/g
Individual Tumor-Site Tissue Platinum Concentrations ([3]; Group 7: 1.1 mg/kg IT on Days 1 and 16, Day 16 (predose), 1.1 mg/kg): 1.90 μg/g and 2.42 μg/g and 7.79 μg/g and 2.76 μg/g and BLQ (below the limit of quantitation (<0.650 μg/g) and treated as zero for statistical purposes)
Mean Tumor-Site Tissue Platinum Concentrations ([3]; Group 7: 1.1 mg/kg IT on Days 1 and 16, Day 28): 9.11 µg/g
Individual Tumor-Site Tissue Platinum Concentrations ([3]; Group 7: 1.1 mg/kg IT on Days 1 and 16, Day 28, 1.1 mg/kg): 20.2 µg/g and 8.89 µg/g and 6.35 µg/g and 7.97 µg/g and 2.16 µg/g
Tumor-Site Tissue Platinum AUC0-t [3, 11]: 470 µg·h/g
Tumor-Site Tissue Platinum Tmax [3, 11]: 384 h
Tumor-Site Tissue Platinum AUC0-t [3, 12]: 3,728 μg · hr/g
Tumor-Site Tissue Platinum Tmax [3, 12]: 1 h
Tumor-Site Tissue Platinum AUC0-192 ([3]; single dose Day 1, 6 mg/kg IP): 70.5 µg·h/g
Tumor-Site Tissue Platinum Tmax ([3]; single dose Day 1, 6 mg/kg IP): 1 h
Tumor-Site Tissue Platinum AUC0-192 [3, 13]: 1,393 μg · hr/g
Tumor-Site Tissue Platinum AUC0-384 [3, 13]: 1,988 μg · hr/g
Tumor-Site Tissue Platinum Tmax [3, 13]: 1 h
mean Day 28 tumor-site tissue platinum concentrations, IT versus IP ([3]; ~1.1 mg/kg IT Days 1 and 16 versus 6 mg/kg IP Days 1, 8, 15): greater than following IP administration
